This is an account of results in patent US20050244819A1, “Assay system for screening protease inhibitors” (priority 2004, published 2005).

A value given as a limit tells only on which side of the number the result lay.

One data set relates to Wild-type HIV. The note with it: concentration inhibiting 90% of mammalian cell death induced by HIV infection; Patick et al.; read-out: EC90 (μM) from standard antiviral assay with: Wild-type HIV; cited from earlier work.
The subject of the next data set is D30N HIV strain. To be noted: concentration inhibiting 90% of mammalian cell death induced by HIV infection; Patick et al.; read-out: EC90 (μM) from standard antiviral assay with: D30N HIV strain; cited from earlier work.
A further data set deals with wild-type HIV protease (Human immunodeficiency virus type 1 group M subtype B, UniProt P12497). As to the kind of experiment: cell-based. On the procedure: (§1) Stock solutions of the FDA-approved HIV protease inhibitors were prepared by solubilizing the drugs in 100% dimethyl sulfoxide (DMSO) at 100 mM. A single colony of the cells bearing the respective plasmid, namely pTF-PR^WT or pTF-PR^mutant, was inoculated into 2 ml of Luria-Bertani (LB) medium with 100 μg of ampicillin/ml and grown overnight at 37° C. The culture was diluted 100-fold with fresh Luria-Bertani medium containing 100 μg of ampicillin/ml and incubated at 37° C. for 2 h until the optical density at 630 nm (OD630) of the cells reached 0.6. The cells were then induced for protein expression with 0.2% arabinose and simultaneously treated with either HIV protease inhibitors dissolved in 2% DMSO at the indicated concentrations or 2% DMSO alone as the negative control. After incubation for an additional 3 h at 30° C., the cells were collected for Western blot analysis of proteins.
Cell-Based β-galactosidase Activity Assay. Cell-based β-galactosidase activity assays were performed basically as described in Example 4. E. coli cells bearing each of the expression plasmids were grown as described, except that after incubation at 37° C. for 2 h to an OD630 of 0.6, the cells were transferred in triplicate sets to the wells of 96-well microplates. The cells were subjected to simultaneous induction for recombinant protein expression as well as drug treatment with HIV protease inhibitors at the indicated concentrations in 2% DMSO. For the screening of the compound library generated by the amide-forming reaction (see Example 5), DMF was used instead of DMSO. After incubation for an additional 3 h at 30° C., the cells were made permeable for the entry of the β-galactosidase substrate, (ortho-nitrophenyl-β-D-galactopyranoside (ONPG)), by diluting the cells in assay buffer (10 mM NaP, pH 7.3, 10 mM NaCl, 1 mM MgSO4, 5 mM β-mercaptoethanol) that contained 50 μg of polymyxin B sulfate/ml and 2%Triton X-100 (Schupp et al., BioTechniques 19:18-20 (1995)). The cells were then incubated for 5 min at room temperature in 96-well microplates. After the OD630 of the cells was determined by using an Ultramark microplate imaging system (Bio-Rad, Hercules, Calif.), ONPG was added at a final concentration of 200 μM to start the enzymatic reactions at 37° C. Changes in the OD415, indicating the production of ortho-nitrophenol, were continuously monitored with the Ultramark microplate imaging system. The linear portion of the progression curve was used to determine the initial velocity with MATLAB (The MathWorks Inc., Natick, Mass.). The difference in OD415 (ΔA) was converted to the increase in product concentration (ΔC) by using the equation ΔA=ε(ΔC)(L), where L is the light path of 0.4 cm and the extinction coefficient (ε) of ortho-nitrophenol was 3,500 M^−1 cm^−1 under the assay conditions. The β-galactosidase activity was determined as the number of micromoles of ortho-nitrophenol produced per minute at 37° C. The β-galactosidase activity was then normalized against the amount of total cellular proteins, which was estimated by assuming that an OD630 unit corresponds to 1.4×10^9 cells and that every 10^9 cells yield approximately 150 μg of proteins (Pardee et al., J. Mol. Biol. 1:165-68 (1959)).
ββ-galactosidase activity assays were performed as described in Example 8. After drug treatment for 3 h, the cells were processed for detection of β-galactosidase activity of whole cells in 96-well microplates as described. Cells coexpressing TF-PR^WT and β-GalPR were treated with HIV protease inhibitors at the concentrations between 0 and 400 μM. β-galactosidase activities (micromoles per minute per milligram of total protein) in the treated E. coli cells were determined.
The β-galactosidase activity detected in E. coli coexpressing TF-PR^WT and β-Gal^PR in the absence of HIV protease inhibitors was referred to as 0% inhibition.

In data set [1] the target is T1, HIV protease precursor TF-PR^WT (Human immunodeficiency virus type 1 group M subtype B, UniProt P12497, L434F).
T1 construct: Met-Gly (my reading of primer TF-F) + native transframe region (TFP 8 aa + p6pol 48 aa = 56 aa directly upstream of the protease in Gag-Pol); removed by autoprocessing (N, cleaved yes); expressed in transfected cells; host or cells: E. coli DH5α bearing plasmid pTF-PR^WT (pBAD, arabinose-induced)
In words: cell-based. Details: species or system HIV-1. How it is done:
as §1

A further data set addresses T2, D30N HIV protease (Human immunodeficiency virus type 1 group M subtype B, UniProt P12497, D518N).
T2 construct: used to replace the wild-type HIV protease domain in the two-cistron expression construct; Met-Gly (my reading of primer TF-F) + native transframe region (56 aa directly upstream of the protease in Gag-Pol) (N); Lys-Glu-Glu (my translation of primer PR-R: Shine-Dalgarno in frame before the stop codon) (C); expressed in transfected cells; host or cells: E. coli bearing plasmid pTF-PR^D30N
In words: cell-based. Also on record: species or system HIV-1. How it is done: (§2) Cell-Based β-galactosidase Activity Assay. Cell-based β-galactosidase activity assays were performed basically as described in Example 4. E. coli cells bearing each of the expression plasmids were grown as described, except that after incubation at 37° C. for 2 h to an OD630 of 0.6, the cells were transferred in triplicate sets to the wells of 96-well microplates. The cells were subjected to simultaneous induction for recombinant protein expression as well as drug treatment with HIV protease inhibitors at the indicated concentrations in 2% DMSO. For the screening of the compound library generated by the amide-forming reaction (see Example 5), DMF was used instead of DMSO. […] After the OD630 of the cells was determined by using an Ultramark microplate imaging system (Bio-Rad, Hercules, Calif.), ONPG was added at a final concentration of 200 μM to start the enzymatic reactions at 37° C. Changes in the OD415, indicating the production of ortho-nitrophenol, were continuously monitored with the Ultramark microplate imaging system. […] The β-galactosidase activity was determined as the number of micromoles of ortho-nitrophenol produced per minute at 37° C. […]

The next data set concerns the target T3, I84V HIV protease (Human immunodeficiency virus type 1 group M subtype B, UniProt P12497, I572V).
T3 construct: used to replace the wild-type HIV protease domain in the two-cistron system to construct the plasmid pTF-PR^I84V; Met-Gly (my reading of primer TF-F) + native transframe region (56 aa directly upstream of the protease in Gag-Pol) (N); Lys-Glu-Glu (my translation of primer PR-R: Shine-Dalgarno in frame before the stop codon) (C); expressed in transfected cells; host or cells: E. coli bearing plasmid pTF-PR^I84V
In words: E. coli-based assay system: β-galactosidase activity, cells co-expressing TF-PR^I84V and β-Gal^PR. The data set is classed as cell-based, HIV-1. On the procedure: as §2

Consider `CC(C)(C)NC(=O)[C@@H]1C[C@@H]2CCCC[C@@H]2CN1C[C@@H](O)[C@H](Cc1ccccc1)NC(=O)[C@H](CC(N)=O)NC(=O)c1ccc2ccccc2n1` [SQV, saquinavir], for which the EC90 with Wild-type HIV was 0.03 µM; in the data set on D30N HIV strain, 0.01 µM.

In the case of `CC(C)CN(C[C@@H](O)[C@H](Cc1ccccc1)NC(=O)O[C@H]1CCOC1)S(=O)(=O)c1ccc(N)cc1` [APV, amprenavir], the IC50 on wild-type HIV protease is 53400 ± 17400 nM; in data set [1] it was 1600 to 8000 nM; against D30N HIV protease it was 35900 ± 17700 nM; on I84V HIV protease, 280000 ± 39000 nM.

With `CC(C)c1nc(CN(C)C(=O)N[C@H](C(=O)N[C@@H](Cc2ccccc2)C[C@H](O)[C@H](Cc2ccccc2)NC(=O)OCc2cncs2)C(C)C)cs1` [RTV, ritonavir], the figures for the EC90 with Wild-type HIV and in the data set on D30N HIV strain were 0.05 µM and 0.01 µM, respectively.

Take `CC(C)(C)NC(=O)[C@@H]1CN(Cc2cccnc2)CCN1C[C@@H](O)C[C@@H](Cc1ccccc1)C(=O)N[C@H]1c2ccccc2C[C@H]1O` [IDV, indinavir]: the EC90 is 0.06 µM in the data set on Wild-type HIV and 0.01 µM in the data set with D30N HIV strain.

As to `Cc1c(O)cccc1C(=O)N[C@@H](CSc1ccccc1)[C@H](O)CN1C[C@H]2CCCC[C@H]2C[C@H]1C(=O)NC(C)(C)C` [NFV, nelfinavir], the figures for the EC90 in the data set with Wild-type HIV and with D30N HIV strain were 0.03 µM and 0.18 µM, respectively. Moreover, the results for the IC50 (on wild-type HIV protease; in data set [1]; at D30N HIV protease) were 48400 ± 4800 nM, 1600 to 8000 nM and over 400000 nM, respectively. Moreover, the inhibition at 400 µM on wild-type HIV protease (read-out: % inhibition against the wild-type HIV protease) is 75%.

As to pepstatin A, at wild-type HIV protease (E. coli cells coexpressing TF-PR^WT and β-Gal^PR), the “inhibition of β-galactosidase activity (so in the source)” value is “did not inhibit”. For the same compound, the cell permeability entry at wild-type HIV protease (E. coli cells, inferred from lack of inhibition) is “low cell permeability”. Further, the “inhibitory effects in the assay procedures described herein” value against wild-type HIV protease (up to 5 mM) is on record as “failed to exert any inhibitory effects”.

One may read the EC90 as the concentration needed for an effect of 90%. As usually defined, the IC50 is the concentration that gives 50% inhibition. Read a low IC50 as greater potency in that assay. As a reminder, the inhibition is the drop in the measured response relative to a control, in per cent.
